Data from patent US4264625A, “Pesticidal unsymmetrical bis-arylcarbamate sulfide compounds” (Union Carbide Corporation, priority 1978, dated 1981).

What was measured:
Format in all cases: in vivo
[1] = system: Mexican bean beetle (Epilachna varivestis, Muls.); assay: Mexican Bean Beetle Leaf Spray Test; parameters: key: A: excellent control; B: partial control; C: no control; details: 500 ppm leaf spray, fourth instar larvae, three days, mortality rating
Protocol: (§1) Suspensions of the test compounds were prepared by dissolving one gram of compound in 50 milliliters of acetone in which had been dissolved 0.1 gram (10 percent of the weight of compound) of an alkylphenoxy polyethoxyethanol surfactant, as an emulsifying or dispersing agent. The resulting solution was mixed into 150 milliliters of water to give roughly 200 milliliters of a suspension containing the compound in finely divided form. The thus-prepared stock suspension contained 0.5 percent by weight of compound. The test concentrations in parts per million by weight employed in the tests described hereinbelow were obtained by appropriate dilutions of the stock suspension with water. The test procedures were as follows:
Mexican Bean Beetle Leaf Spray Test
Fourth instar larvae of the Mexican bean beetle (Epilachna varivestis, Muls.), reared on Tendergreen bean plants at a temperature of 80°±5° F. and 50±5 percent relative humidity, were the test insects.
The test compounds were formulated by diluting the stock suspension with water to give a suspension containing 500 parts of test compound per million parts of final formulation. Potted Tendergreen bean plants of standard height and age were placed on a revolving turntable and sprayed with 100-110 milliliters of test compound formulation by use of a DeVilbiss spray gun set at 10 psig air pressure. This application, which lasted 25 seconds, was sufficient to wet plants to run-off. As a control, 100-110 milliliters of a water-acetone-emulsifier solution containing no test compound were also sprayed on infested plants. When dry, the paired leaves were separated and each was placed in a 9 centimeter Petri dish lined with moistened filter paper. Five randomly selected larvae were introduced into each dish, and the dishes were closed. The closed dishes were labeled and held at a temperature of 80°±5° F. for three days. Although the larvae could easily consume the leaf within 24 to 48 hours, no more food was added. Larvae which were unable to move the length of the body, even upon stimulation, were considered dead.
(§2) In these tests the pesticidal activity of the compounds against aphid, mite, Southern Armyworm, Bean Beetle and house fly was rated as follows: […]

[2] = system: southern armyworm (Prodenia eridania, (Cram.)); assay: Southern Armyworm Leaf Spray Test; parameters: key: A: excellent control; B: partial control; C: no control; details: 500 ppm leaf spray, larvae, three days, mortality rating
Protocol: as §1
Southern Armyworm Leaf Spray Test
Larvae of the southern armyworm (Prodenia eridania, (Cram.)), reared on Tendergreen bean plants at a temperature of 80°±5° F. and a relative humidity of 50±5 percent, constituted the test insects.
The test compounds were formulated by diluting the stock suspension with water to give a suspension containing 500 parts of test compound per million parts of final formulation. Potted Tendergreen bean plants of standard height and age were placed on a revolving turntable and sprayed with 100-110 milliliters of test compound formulation by use of a DeVilbiss spray gun set at 10 psig air pressure. This application, which lasted 25 seconds, was sufficient to wet plants to run-off. As a control, 100-110 milliliters of a water-acetone-emulsifier solution containing no test compound were also sprayed on infested plants. When dry, the paired leaves were separated and each one was placed in a 9 centimeter Petri dish lined with moistened filter paper. Five randomly selected larvae were introduced into each dish and the dishes were closed. The closed dishes were labeled and held at 80°-85° F. for three days. Although the larvae could easily consume the whole leaf within twenty-four hours, no more food was added. Larvae which were unable to move the length of the body, even upon stimulation by prodding, were considered dead. Percent mortality was recorded for various concentration levels.
as §2

[3] = system: bean aphid (Aphis fabae Scop.); assay: Bean Aphid Foliage Spray Test; parameters: key: A: excellent control; B: partial control; C: no control; details: 500 ppm foliage spray, 24 hours, mortality rating
Protocol: as §1
Bean Aphid Foliage Spray Test
Adults and nymphal stages of the bean aphid (Aphis fabae Scop.) reared on potted dwarf nasturtium plants at 65°-70° F. and 50-70 percent relative humidity, constituted the test insects. For testing purposes, the number of aphids per pot was standardized to 100-150 by trimming plants containing excess aphids.
The test compounds were formulated by diluting the stock suspension with water to give a suspension containing 500 parts of test compound per million parts of final formulation.
The potted plants (one pot per compound tested) infested with 100-150 aphids, were placed on a revolving turntable and sprayed with 100-110 milliliters of test compound formulation by use of a DeVilbiss spray gun set at 40 psig. air pressure. This application, which lasted 25 seconds, was sufficient to wet the plants to run-off. As a control, 100-110 milliliters of a water-acetone-emulsifier solution containing no test compound were also sprayed on infested plants. After spraying, the pots were placed on their sides on a sheet of white standard mimeograph paper which had been previously ruled to facilitate counting. Temperature and humidity in the test room during the 24 hour holding period were 65°-70° F. and 50-70 percent, respectively. Aphids which fell onto the paper and were unable to remain standing after being uprighted were considered dead. Aphids remaining on the plants were observed closely for movement and those which were unable to move the length of the body upon stimulation by prodding were considered dead. Percent mortality was recorded for various concentration levels.
as §2

[4] = system: house flies (Musca domestica, L.); assay: Fly Bait Test; parameters: key: A: excellent control; B: partial control; C: no control; details: 500 ppm in sugar-solution bait, 24 hours, mortality rating
Protocol: as §1
Four to six day old adult house flies (Musca domestica, L.) reared according to the specifications of the Chemical Specialties Manufacturing Association (Blue Book, McNair-Dorland Co., N.Y. 1954; pages 243-244, 261) under controlled conditions of 80°±5° F. and 50±5 percent relative humidity, were the test insects. The flies were immobilized by anesthetizing with carbon dioxide and twenty five immobilized individuals, males and females, were transferred to a cage consisting of a standard food strainer about five inches in diameter which was inverted over a wrapping-paper-covered surface. The test compounds were formulated by diluting the stock suspension with a 10 percent (by weight) sugar solution to give a suspension containing 500 parts of test compound per million parts of final formulation, by weight. Ten milliliters of the test formulation were added to a souffle cup containing a one-inch square of an absorbent cotton pad. This bait cup was introduced and centered on the blotting paper under the food strainer prior to admitting the anesthetized flies. The caged flies were allowed to feed on the bait for twenty four hours, at a temperature of 80°±5° F. and the relative humidity of 50±5 percent.
as §2

Bean = details: 2500 ppm spray, ten days, rating 1-5
Protocol: (§3) POST-EMERGENT HERBICIDAL TEST
(§4) Experiments were also conducted to determine the phytotoxicity of representative compositions with respect to healthy fresh plants. Solutions of the compounds were prepared as described above to provide a concentration of 2500 parts per million of the test compound. The test plants were sprayed in accordance with the procedure described above for the Mite Foliage Spray Test so as to deliver approximately 100 milliliters of test solution to the leaves of each plant tested. The sprayed plants and controls were set aside for approximately one hour to allow the solutions to dry and were then placed in the greenhouse. After ten days the plants were visually inspected to determine the extent of foliage injury. A rating of 1 indicates no perceptible injury; 5 indicates the plant was dead and ratings of 2, 3 and 4 indicate intermediate degrees of injury based upon the number and extent to which leaves were injured.

Cotton = details: 2500 ppm spray, ten days, rating 1-5
Protocol: as §3, §4

Tomato = details: 2500 ppm spray, ten days, rating 1-5
Protocol: as §3, §4

Soybean = details: 2500 ppm spray, ten days, rating 1-5
Protocol: as §3, §4

Corn = details: 2500 ppm spray, ten days, rating 1-5
Protocol: as §3, §4

[5] = system: two-spotted mite (Tetranychus urticae Koch); assay: Mite Foliage Spray Test; parameters: key: A: excellent control; B: partial control; C: no control; details: 500 ppm foliage spray, six days, mortality rating
Protocol: as §1
Adults and nymphal stages of the two-spotted mite (Tetranychus urticae Koch), reared on Tendergreen bean plants at 80±5 percent relative humidity, were the test organisms. Infested leaves from a stock culture were placed on the primary leaves of two bean plants six to eight inches in height, growing in a two-and-a-half inch clay pot. 150-200 Mites, a sufficient number for testing, transferred from the excised leaves to the fresh plants in a period of twenty four hours. Following the twenty four hour transfer period, the excised leaves were removed from the infested plants. The test compounds were formulated by diluting the stock suspension with water to give a suspension containing 500 parts of test compound per million parts of final formulation. The potted plants (one pot per compound) were placed on a revolving turntable and sprayed with 100-110 milliliters of test compound formulation by use of a DeVilbiss spray gun set at 40 psig. air pressure. This application, which lasted 25 seconds, was sufficient to wet the plants to run-off. As a control, 100-110 milliliters of a water solution containing acetone and emulsifier in the same concentrations as the test compound formulation, but containing no test compound, were also sprayed on infested plants. The sprayed plants were held at 80±5 percent relative humidity for six days, after which a mortality count of motile forms was made. Microscopic examination for motile forms was made on the leaves of the test plants. Any individual which was capable of locomotion upon prodding was considered living.
as §2

Structure (SMILES)	Pesticidal Activity, Mexican Bean Beetle [1]	Pesticidal Activity, Southern Armyworm [2]	Pesticidal Activity, Aphid [3]	Pesticidal Activity, House fly [4]	Phytotoxicity, Bean (Bean)	Phytotoxicity, Cotton (Cotton)	Phytotoxicity, Tomato (Tomato)	Phytotoxicity, Soybean (Soybean)	Phytotoxicity, Corn (Corn)	Pesticidal Activity, Mite [5]
Cc1cc(OC(=O)N(C)SN(C)C(=O)Oc2ccc(N=CN(C)C)c(C)c2)ccc1N=CN(C)C [drawing 37]	A	A	A	A	1	1	1	1	1	A
Cc1cc(OC(=O)N(C)SN(C)C(=O)Oc2ccc(N=CN(C)C)c(C)c2)ccc1N=CN(C)C [drawing 39]	A	A	A	A	2	1	1	2	1	A
C#CCOc1ccccc1OC(=O)N(C)SN(C)C(=O)Oc1cccc2ccccc12	A	A	A	A	1	1	1	2	1	C
COC(=O)Nc1ccc(OC(=O)N(C)SN(C)C(=O)Oc2ccc(NC(=O)OC)c(C(C)C)c2)cc1C(C)C	A	A	C	C	1	1	1	1	1	C
CN(SN(C)C(=O)Oc1ccc(Oc2ccccc2)cc1)C(=O)Oc1ccc(Oc2ccccc2)cc1	C	C	C	C	1	1	1	1	1	C
CN(SN(C)C(=O)Oc1ccccc1C1SCCS1)C(=O)Oc1ccccc1C1SCCS1	A	A	A	A	1	1	1	1	1	C
C=CCc1ccc(OC(=O)N(C)SN(C)C(=O)Oc2ccc(CC=C)cc2OC)c(OC)c1	C	C	C	C	1	1	1	1	1	C
